Results on four molecules are retold here after BindingDB's records for doi:10.1016/s0960-894x(99)00213-9 (Cardiff University, 1999).

Test [1] addresses Dihydrofolate reductase (Trypanosoma cruzi). Put plainly: Inhibitory activity against Trypanosoma cruzi dihydrofolate reductase.
Test [2] has the same target. The description is as above. The source holds these as a separate data set.

As usually defined, the Ki is the dissociation constant of the complex between target and ligand, obtained from inhibition or displacement. Higher therefore signals lower affinity. Turning to `CCOC(=O)CCCCN(Cc1cnc2nc(N)nc(N)c2n1)c1ccc(C(=O)NC(CCC(=O)OCC)C(=O)OCC)cc1` (centres undefined) [2-{4-[(2,4-Diamino-pteridin-6-ylmethyl)-(4-ethoxycarbonyl-butyl)-amino]-benzoylamino}-pentanedioic acid diethyl ester], in test [1], affinity was put at a Ki of 46 nM. This counts as double-digit nanomolar.
The same measure, in the same setting: in the case of `CCOC(=O)CCCCCN(Cc1cnc2nc(N)nc(N)c2n1)c1ccc(C(=O)NC(CCC(=O)OCC)C(=O)OCC)cc1` (centres undefined) [2-{4-[(2,4-Diamino-pteridin-6-ylmethyl)-(5-ethoxycarbonyl-pentyl)-amino]-benzoylamino}-pentanedioic acid diethyl ester] it was 56 nM; in that of `Nc1nc(N)c2nc(CN(CCCCC(=O)O)c3ccc(C(=O)NC(CCC(=O)O)C(=O)O)cc3)cnc2n1` (centres undefined) [2-{4-[(4-Carboxy-butyl)-(2,4-diamino-pteridin-6-ylmethyl)-amino]-benzoylamino}-pentanedioic acid], 0.131 nM.
Consider `Nc1nc(N)c2nc(CN(CCCCCC(=O)O)c3ccc(C(=O)NC(CCC(=O)O)C(=O)O)cc3)cnc2n1` (centres undefined) [2-{4-[(5-Carboxy-pentyl)-(2,4-diamino-pteridin-6-ylmethyl)-amino]-benzoylamino}-pentanedioic acid], for which affinity in test [2] was put at a Ki of 0.183 nM.
